Assay results as given in patent US6821774B1, “Compositions and methods for increasing cholesterol efflux and raising HDL using ATP binding cassette transporter ABC1” (CV Therapeutics, Inc., priority 1999, dated 2004).

Experiments:
RAW 264.7 cells [1] = experiment: Apo A-I-mediated cholesterol efflux assay in cholesterol-loaded RAW 264.7 macrophage cells; type: cell-based, mouse
Protocol: To determine whether ligands for nuclear receptors affect the process of apolipoprotein-mediated cholesterol efflux, various ligands were tested using the apo A-I-mediated cholesterol efflux assay described in Example 12. The nuclear receptor superfamily includes several members, such as the liver receptor LXR, the retinoid receptor RXR, and the peroxisome proliferator-activated receptor PPAR, which have been implicated in lipid metabolism (Russell. D. W., Cell, 97:539-542 (1999); Spiegelman, B. W., Cell, 93:153-155 (1998); Janowski et al., Nature, 383:728-731 (1996)). […] Using the above-described assay, 9 cis-retinoic acid (RXR ligand), oxysterol (LXR ligand), and fenfibrate (PPAR ligand) was tested to determine the effect on cholesterol efflux.
To determine whether eicosanoids affect the process of apolipoprotein-mediated cholesterol efflux, PGE1 and PG12 were tested using the apo A-I-mediated cholesterol efflux assay described in Example 12.

ABC1 mRNA [2] = experiment: ABC1 mRNA expression by RT-PCR in normal fibroblasts; type: cell-based, human
Protocol: (§1) To determine whether ABC1 plays a rate-limiting role in cellular sterol efflux, the synthesis of ABC1 was measured under various cellular conditions related to cholesterol efflux processes. Specifically, normal fibroblasts and TD fibroblasts were individually exposed to conditions of excess cAMP, cholesterol, or Apo A-I. Cell cultures of normal skin fibroblasts and TD1 and TD2 fibroblasts were prepared as described in Example 1. The level of ABC1 mRNA was measured by RT-PCR. Cell cultures: Immortalized cell cultures of normal skin fibroblasts and TD1 and TD2 fibroblasts were prepared as described in Example 1. Cells were grown to subconfluence in DMEM/10% FBS before replacement with DMEM/BSA and the indicated additive for 24 or 48 hours. RNA was prepared as described in Example 2. RT-PCR: Quantitative PCR was carried out using the GeneAmp 5700 Sequence Detection System (Perkin-Elmer Applied Biosystems, Foster City, Calif.). Briefly, 500 ng of DNase-treated mRNA was reverse transcribed using random hexamer primers at 2.5 μM. Approximately 5% of this reaction was amplified by PCR using the SYBR green core kit (PE Applied Biosystems, Foster City, Calif.; Cat. #4304886) and human ABC1 primers […] […] The mRNA in each sample was quantitated by detecting the increase in fluorescence caused by SYBR green binding to the double-stranded amplification product generated during each PCR cycle. […]

ABC1 mRNA [3] = experiment: ABC1 mRNA expression by RT-PCR in Tangier disease (TD1, TD2) fibroblasts; type: cell-based, human; details: 10 μg/ml apo A-I
Protocol: as §1

normal fibroblasts [4] = experiment: Cholesterol efflux from cholesterol-laden normal fibroblasts; type: cell-based, human; details: albumin plus apo A-I 10 μg/ml; up to 48 hours
Protocol: (§2) Cell Cultures: Human fibroblasts were obtained from skin explants from two normal subjects (NL1) and three unrelated patients with Tangier disease ([…]). TD1 cells were obtained from a person with extremely low plasma HDL cholesterol and apo A-I levels and clinical symptoms typical of Tangier disease. […] TD3 cells were obtained from a person with Tangier disease who presented with orange tonsil remnants, asymmetrical motor neuropathy, plasma HDL cholesterol of 5 mg/dL, and LDL cholesterol of 16 mg/dL (Lawn et at., J. Clin. Invest., 104, R25-R31 (1999)). The normal cells and TD subject cells were immortalized as described in Oram et al., J. Lipid Res., 40: 1769-1781 (1999). Briefly, the cells were transfected with amphotropic retroviruses containing vectors with inserts of human papillomavirus 16 oncogenes E6 and E7 and a neomycin resistance selectable marker. Control cells were infected with vector alone (mock-infected). Pooled cell populations were selected in the presence of G418 for two passages, after which G418 was excluded from the medium. Fibroblasts were used between the fifth and sixteenth passage (primary) or sixth and fourteenth passage (immortalized). The immortalized normal and TD cells were seeded into 16-mm wells or 35-mm dishes and grown to confluence in Dulbecco's modified Eagle's medium (DMEM) plus 10% fetal bovine serum (FBS) before experimental use. […]

TD fibroblasts = experiment: Cholesterol efflux from cholesterol-laden Tangier disease fibroblasts; type: cell-based, human; details: albumin plus apo A-I 10 μg/ml
Protocol: as §2

ABC1 mRNA [5] = experiment: Apo A-I-mediated cholesterol efflux from normal skin fibroblasts loaded with antisense oligonucleotide; type: cell-based, human; details: 30 μM oligonucleotide; apo A-I-mediated efflux after 12 hours
Protocol: Normal skin fibroblasts were labeled with [^3H]cholesterol as described in Example 1. The cells were then loaded with oligonucleotide by scraping in the presence of either 30 μM control Morpholino oligonucleotide (5′-[…]-3′ corresponding to the antisense complement of a β-globin thalassemic mRNA; SEQ ID NO: 52) or 30 μM ABC1 antisense Morpholino oligonucleotide (5′-[…]-3′; SEQ ID NO: 53) and reseeding on new dishes. Control cells were mock-loaded after [^3H]cholesterol-labeling by scraping and reseeding in the absence of oligonucleotide. […] The results are shown in FIG. 6 as the mean±SEM of three separate experiments, normalized to the value for apo A-I-specific efflux in the absence of oligonucleotide in each experiment.

normal fibroblasts [6] = experiment: Apo A-I-mediated cholesterol efflux from normal fibroblasts in the presence of ABC1 transport inhibitors; type: cell-based, human; details: 6 hours; 5 μg/ml apo A-I; 0, 0.2 mM or 0.4 mM inhibitor
Protocol: To test whether inhibition of ABC1 could affect the process of apolipoprotein-mediated cholesterol efflux, two compounds reported to be ABC1 inhibitors were tested in assays which monitor apolipoprotein mediated cholesterol efflux. […] The apolipoprotein-mediated cholesterol efflux assays were performed as described in Example 1 with the noted changes. Cholesterol-loaded and [^3H]cholesterol-labeled normal fibroblasts (n=3) were incubated for 6 hours with or without 5 μg/ml apo A-1 and either 0, 0.2 mM, or 0.4 mM DIDS. In addition, cholesterol-loaded and [^3H]cholesterol-labeled normal fibroblasts (n=3) were incubated for 6 hours with or without 5 μg/ml apo A-I and either 0, 0.2 mM, or 0.4 mM BSP. […] The results are shown in FIG. 5 as the mean±SD (n=3) of efflux in the presence of apo A-I after subtraction of values for apo A-I-free medium. […] The results of these tests mimic the efflux defect in fibroblasts derived from patients with TD, described in Example 1.

ABC1 = ABC1 (Mus musculus, UniProt P41233); details: Becq et al. 1997; Hamon et al. 1997; cited from earlier work
RAW 264.7 cells [7] = experiment: Apo A-I-mediated cholesterol efflux assay in cholesterol-loaded RAW 264.7 macrophage cells; type: cell-based, mouse; details: apo A-I (20 μg/ml) and rolipram 50 μM
ABC1 protein = experiment: Cell-surface labeling and immunoprecipitation of ABC1 protein in normal and TD1 fibroblasts; type: cell-based, human; details: serum deprivation and cholesterol-loading (30 μg/ml, 48 hours), normal and TD1 cells
Protocol: Cell-surface labeling and immunoprecipitation was used to determine whether increased expression of ABC1 protein in the plasma membrane is correlated with an increase in cholesterol efflux (FIG. 10). The relative amount of ABC1 on the cell surface was determined by cross-linking surface proteins on intact cells with the membrane-impermeable agent sulfo-NHS-biotin, followed by the steps of membrane solubilization, immunoprecipitation with ABC1 antibody, SDS-PAGE, and detection with streptavidin.
Both normal and TD1 cells were cultured under control conditions and conditions known to increase apolipoprotein-mediated cholesterol efflux (Oram, et al., J. Lip. Res., 40: 1769-1781 (1999)). […] Cholesterol-loaded cells were grown to confluence in DMEM/10% FBS and then incubated in DMEM/BSA for 48 hours with 30 μg/ml cholesterol plus 18 hours with no additives (cholesterol). […]
Detection of ABC1 Protein: The eluted biotinylated proteins were subjected to SDS-PAGE (6% gel; 150V, 5 hours) and transferred to nitrocellulose membrane (200 mA, 18 hours). The nitrocellulose was probed with streptavidin-horse radish peroxidase (Amersham Pharmacia, Piscataway, N.J.; Cat. #RPN 1231) diluted 300-fold and detected by enhanced chemiluminescence labeling (ECL) according to vendor's protocol (Amersham Pharmacia, Piscataway, N.J.). […]

Chain of ABC1 (P41233 whole entry): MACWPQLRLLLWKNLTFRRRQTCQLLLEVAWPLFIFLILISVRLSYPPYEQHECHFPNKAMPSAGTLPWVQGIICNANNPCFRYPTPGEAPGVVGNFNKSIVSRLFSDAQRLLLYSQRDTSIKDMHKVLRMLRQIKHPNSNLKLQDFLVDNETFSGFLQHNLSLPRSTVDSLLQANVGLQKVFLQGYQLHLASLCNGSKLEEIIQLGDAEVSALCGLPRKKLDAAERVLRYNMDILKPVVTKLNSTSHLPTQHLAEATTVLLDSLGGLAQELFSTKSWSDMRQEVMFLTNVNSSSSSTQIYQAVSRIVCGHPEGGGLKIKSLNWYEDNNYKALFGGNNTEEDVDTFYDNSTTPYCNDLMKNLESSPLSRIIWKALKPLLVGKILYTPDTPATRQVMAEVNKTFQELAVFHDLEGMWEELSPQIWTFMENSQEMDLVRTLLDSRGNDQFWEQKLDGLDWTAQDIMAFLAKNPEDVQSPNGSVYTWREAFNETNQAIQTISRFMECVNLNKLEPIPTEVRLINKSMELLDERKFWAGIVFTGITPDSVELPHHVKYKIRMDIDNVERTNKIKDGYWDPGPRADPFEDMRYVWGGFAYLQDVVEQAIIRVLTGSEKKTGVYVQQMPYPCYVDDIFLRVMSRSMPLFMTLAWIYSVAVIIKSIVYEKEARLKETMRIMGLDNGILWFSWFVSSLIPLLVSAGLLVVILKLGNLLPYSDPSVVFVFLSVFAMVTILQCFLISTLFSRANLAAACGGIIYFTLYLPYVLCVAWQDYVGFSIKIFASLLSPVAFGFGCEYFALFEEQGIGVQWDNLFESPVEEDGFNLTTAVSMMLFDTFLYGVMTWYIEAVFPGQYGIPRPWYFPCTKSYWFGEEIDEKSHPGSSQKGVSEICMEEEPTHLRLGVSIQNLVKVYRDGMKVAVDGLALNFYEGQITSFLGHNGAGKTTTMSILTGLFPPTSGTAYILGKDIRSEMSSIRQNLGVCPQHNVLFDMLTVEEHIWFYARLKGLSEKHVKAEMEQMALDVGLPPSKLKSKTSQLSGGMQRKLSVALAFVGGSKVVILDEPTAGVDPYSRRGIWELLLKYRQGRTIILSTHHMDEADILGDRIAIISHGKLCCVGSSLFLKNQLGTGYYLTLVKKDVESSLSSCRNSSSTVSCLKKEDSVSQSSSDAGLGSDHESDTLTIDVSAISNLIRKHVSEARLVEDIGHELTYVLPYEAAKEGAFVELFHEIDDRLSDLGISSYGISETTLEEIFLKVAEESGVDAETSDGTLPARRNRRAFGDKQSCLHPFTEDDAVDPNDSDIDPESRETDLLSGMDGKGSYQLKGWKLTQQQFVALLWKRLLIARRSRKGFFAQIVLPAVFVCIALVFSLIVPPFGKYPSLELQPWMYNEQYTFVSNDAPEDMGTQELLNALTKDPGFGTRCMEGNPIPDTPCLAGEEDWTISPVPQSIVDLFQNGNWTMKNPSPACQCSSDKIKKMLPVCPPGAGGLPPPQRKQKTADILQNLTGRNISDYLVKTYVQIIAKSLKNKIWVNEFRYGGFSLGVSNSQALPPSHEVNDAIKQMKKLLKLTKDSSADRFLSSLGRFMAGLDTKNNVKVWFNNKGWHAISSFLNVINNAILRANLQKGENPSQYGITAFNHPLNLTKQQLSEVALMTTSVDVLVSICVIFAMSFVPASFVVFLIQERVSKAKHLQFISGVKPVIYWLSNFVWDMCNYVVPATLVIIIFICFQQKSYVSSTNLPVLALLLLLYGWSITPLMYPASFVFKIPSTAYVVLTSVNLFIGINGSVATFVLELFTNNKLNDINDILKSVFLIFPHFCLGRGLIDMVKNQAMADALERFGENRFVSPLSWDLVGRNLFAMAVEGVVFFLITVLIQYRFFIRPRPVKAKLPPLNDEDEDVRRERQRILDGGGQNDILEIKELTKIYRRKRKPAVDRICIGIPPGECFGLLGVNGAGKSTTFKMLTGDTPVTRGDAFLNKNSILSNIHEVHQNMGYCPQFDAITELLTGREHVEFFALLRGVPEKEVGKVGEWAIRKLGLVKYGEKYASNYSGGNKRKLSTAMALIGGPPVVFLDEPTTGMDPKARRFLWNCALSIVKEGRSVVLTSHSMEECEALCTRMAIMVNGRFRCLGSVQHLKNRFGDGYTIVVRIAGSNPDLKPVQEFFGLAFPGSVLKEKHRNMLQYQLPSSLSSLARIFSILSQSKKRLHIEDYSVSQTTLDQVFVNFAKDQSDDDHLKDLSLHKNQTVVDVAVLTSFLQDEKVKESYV

apo A-I: apolipoprotein cholesterol acceptor (Biodesign International)
cholesterol efflux (percentage of total radiolabeled cholesterol appearing in the medium) (RAW 264.7 cells [1]; apo A-I only (20 μg/ml), control cells without apo A-I 3%): 5%
cholesterol efflux counts (RAW 264.7 cells [1]; control cells (apo A-I only)): 1890 c.p.m.
change in ABC1 mRNA expression (ABC1 mRNA [2]; cholesterol-loaded normal fibroblasts then 10 μg/ml apo A-I): marked decrease
change in ABC1 expression (ABC1 mRNA [3]; cholesterol-loaded TD1 cells): did not alter ABC1 expression
change in ABC1 expression (ABC1 mRNA [3]; cholesterol-loaded TD2 cells): slightly increased ABC1 expression
efflux of [3H]-cholesterol (normal fibroblasts [4]): promoted the efflux
efflux of [3H]-cholesterol (TD fibroblasts): little or no effect

ABC1 antisense Morpholino oligonucleotide: 5′-CATGTTGTTCATAGGGTGGGTAGCTC-3′; SEQ ID NO: 53 (all phosphorodiamidate morpholino (PMO))
reduction in cholesterol efflux compared with control (β-globin) antisense oligonucleotide (ABC1 mRNA [5]): 50%

O=C1OC(c2ccc(O)c(S(=O)(=O)O)c2)(c2ccc(O)c(S(=O)(=O)O)c2)c2c(Br)c(Br)c(Br)c(Br)c21 [BSP, sulphobromophthaleine]
apo A-I-mediated efflux of tritiated cholesterol (normal fibroblasts [6]): inhibited
anion transport activities of ABC1 (ABC1): inhibit anion transport activities of ABC1 in a dose-dependent fashion

COc1ccc(C2CNC(=O)C2)cc1OC1CCCC1 (stereo not shown) [rolipram]
cholesterol efflux (percentage of total radiolabeled cholesterol appearing in the medium) (RAW 264.7 cells [7]): 17%

CC(C)CCC[C@@H](C)[C@H]1CC[C@H]2[C@@H]3CC=C4C[C@@H](O)CC[C@]4(C)[C@H]3CC[C@]12C [cholesterol]
increase in ABC1 mRNA (ABC1 mRNA [2]; 30 μg/ml free cholesterol, 48 hours, serum-free medium, normal fibroblasts): approximately 17 fold
cell-surface expression of ABC1 (ABC1 protein): markedly increased
